Experimental data: patent US20210308089A1, “METHODS OF TREATING AND/OR PREVENTING VIRAL INFECTIONS AND/OR DISEASES CAUSED BY VIRUSES IN A SUBJECT IN NEED THEREOF” (priority 2020, published 2021)

Test system: symptomatic COVID-19 outpatients with positive SARS-CoV-2 test
Experiment: VASCEPA-COVID-19: adverse events
Type: in vivo, human
Description: Safety monitoring was undertaken at each study visit in accordance with Health Canada regulations and local reporting guidelines. All serious, unexpected adverse drug reactions (ADRs) were reported to Health Canada in accordance with Division 5 of Part C of the Food and Drug Regulations.
An adverse event (AE) is defined as any untoward medical occurrence, including an exacerbation of a pre-existing condition, in a patient in a clinical investigation who received a pharmaceutical product.
The intensity of the AE should be judged based on the following: • a) Mild: Awareness of sign(s) or symptom(s) that is/are easily tolerated; • b) Moderate: Sufficient discomfort to cause interference with usual activity; or • c) Severe: Incapacitating or causing inability to work or to perform usual activities.

[1] = n = 50, intention-to-treat, usual care 0
[2] = n = 50, intention-to-treat, usual care 6

CC/C=C\C/C=C\C/C=C\C/C=C\C/C=C\CCCC(=O)OCC [icosapent ethyl, eicosapentaenoic acid ethyl ester]
Discontinuations with the 8 g per day loading dose (VASCEPA-COVID-19): no discontinuations
Tolerability (VASCEPA-COVID-19, 14 days): well tolerated
Serious AEs or deaths (VASCEPA-COVID-19 trial population): No serious AEs or deaths occurred
Mild adverse events: Gastrointestinal disorders, % [1]: 8%
Moderate adverse events: Gastrointestinal disorders, % [1]: 2%
Moderate adverse events: Respiratory disorders, % [2]: 2%
Total adverse events, % [2]: 12%
